Source: the supplement of paper PMC10949913

Columns and labels:
Test in all cases: area under concentration-response curve (viability) (AUC (a.u.)); higher = less active
Details in all cases: 48 h
CU-ACC1 = system: CU-ACC1
Method in brief: (§1)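 Cells from three adrenocortical carcinoma lines were seeded at 500–1,000 cells/well in 5 µL medium in 1,536-well plates. Each library compound was added as 23 nL at 11 concentrations, and after 48 h CellTiter-Glo was added for 15 minutes at room temperature before reading luminescence. Plate-wise normalisation to vehicle and empty-well controls preceded curve fitting. AC50 and area under the curve were calculated only for inhibitory or non-responding curve classes.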

NCI-H295R = system: NCI-H295R
Method in brief: as §1

CU-ACC2 = system: CU-ACC2
Method in brief: as §1

Row | Compound | area under concentration-response curve (CU-ACC1) | area under concentration-response curve (NCI-H295R) | area under concentration-response curve (CU-ACC2)
1 | COC1(C[S+]([O-])c2ccccc2)CCN(CCc2c[nH]c3ccc(F)cc23)CC1 (stereo unspecified) | 477 | 493 | 469
2 | NCC/1=C/NC(=S)N1[C@H]2CCC3=C(F)C=C(F)C=C3C2 | 495 | 550 | 547
3 | FC1=CC=C(C=C1)N2/C=C\C=C(C(=O)NC3=CC=C(OC4=C5C=C[NH]C5=NC=C4)C(=C3)F)/C2=O | 588 | 535 | 616
4 | CC1(C)O[C@@H]2C[C@H]3[C@@H]4C[C@H](F)\C5=C\C(=O)\C=C/[C@]5(C)[C@H]4[C@@H](O)C[C@]3(C)[C@@]2(O1)C(=O)CO | 515 | 588 | 622
5 | CCCCC(F)(F)[C@@]1(O)CC[C@H]2[C@@H](CC(=O)[C@@H]2CCCCCCC(=O)O)O1 | 494 | 541 | 599
6 | CN1CCN(CCCNc2ncc(Cl)c(-c3cc4c(C(=O)NC5CC5)cccc4s3)n2)CC1 | 468 | 492 | 557
7 | CCNC(=O)C[C@H]1/N=C(/C2=CC=C(Cl)C=C2)C3=CC(=CC=C3[N]4C(=NN=C14)C)OC | 362 | 455 | 452
8 | COCCNc1cc(NC(=O)N2CCCc3cc(CN4CCN(C)CC4=O)c(C=O)nc32)ncc1C#N | 552 | 564 | 550
9 | Cc1onc(-c2ccccc2)c1-c1ccc([S+](N)(=O)[O-])cc1 | 457 | 535 | 570
10 | OC[C@H]1O[C@@H](O[C@@H]2[C@@H](CO)O[C@](O)(CO)[C@H]2O)[C@H](O)[C@@H](O)[C@H]1O | 508 | 532 | 569
11 | CC(C)(N[S+](=O)([O-])c1ccc2c(Cl)cnc(NC(=N)N)c2c1)C(=O)O | 527 | 570 | 609
12 | CC(=O)OCC(=O)[C@@]12\N=C(C)/O[C@@H]1C[C@H]3[C@@H]4CCC/5=C/C(=O)/C=C\[C@]5(C)[C@H]4[C@@H](O)C[C@]23C | 483 | 514 | 581
13 | CN1CCN2c3ncccc3Cc3ccccc3C2C1 (stereo unspecified) | 494 | 556 | 579
14 | CC(C)NC(=O)N1CC[C@@H](C1)NC/2=N/C3=C(C=CC(=C3)F)N(CC(F)F)C4=C2C=C(Cl)C=C4 | 580 | 580 | 656
15 | S=C1N\C=N/C2=C1[NH]C=N2 | 438 | 495 | 518
16 | OC1=CC=C(C=C1)\C2=C(O)\C(=O)C3=C(O2)C=C(O)C=C3O | 481 | 484 | 451
17 | CC(C)OC(=O)C(C(=O)OC(C)C)=C1S\C=C/S1 | 517 | 575 | 638
18 | Cc1c(Cn2c(C)nc3c(C(=O)O)cc(N4CCOCC4)cc32)cccc1C(F)(F)F | 444 | 519 | 524
19 | Cc1ccc(-c2ncn(-c3ccc(Nc4nccc(-c5cccc(N6CCOCC6)c5)n4)cc3)n2)cn1 | 370 | 549 | 543
20 | CC(=O)N1CCC(Nc2cc(C(=O)NC[C@H](O)CN3CCc4ccccc4C3)ncn2)CC1 | 450 | 473 | 558
21 | CC(=O)O[C@H]1C[C@@H]2CC[C@@H]3[C@H](CC[C@@]4(C)[C@H]3C[C@H]([N+]3(C)CCCCC3)[C@@H]4OC(C)=O)[C@@]2(C)C[C@@H]1N1CCCCC1.[Br-] | 562 | 610 | 632
22 | N=C(N)NC(=O)c1nc(Cl)c(N)nc1N | 455 | 615 | 658
23 | NC[C@H]1O[C@H](O[C@@H]2[C@H](O)[C@@H](O[C@H]3O[C@H](CO)[C@@H](O)[C@H](N)[C@H]3O)[C@H](N)C[C@@H]2N)[C@H](O)[C@@H](O)[C@@H]1O | 472 | 520 | 583
24 | CC(C)(F)C[C@H](N[C@@H](c1ccc(-c2ccc([S+](C)(=O)[O-])cc2)cc1)C(F)(F)F)C(=O)NC1(C#N)CC1 | 481 | 527 | 587

Row | Compound | area under concentration-response curve (CU-ACC1) | area under concentration-response curve (NCI-H295R) | area under concentration-response curve (CU-ACC2)
25 | Oc1nc(-c2ccc(C(F)(F)F)cc2)nc2c1CSCC2 | 511 | 483 | 509
26 | C[C@@H]\1/N=C(/N)NC(=N1)\N(C)C | 407 | 549 | 596
27 | CCC(=O)NC[C@H](Cc1ccc(OCCc2nc(-c3ccccc3)oc2C)cc1)N/C(C)=C\C(=O)c1ccc(C(F)(F)F)cc1 | 498 | 487 | 548
28 | O=c1oc2c(O)c(O)cc3c(=O)oc4c(O)c(O)cc1c4c23 | 482 | 517 | 579
29 | Cc1cnc(NC(=O)C2=C(O)c3ccccc3S(=O)(=O)N2C)s1 | 393 | 396 | 409
30 | Cc1c(NC(=O)c2cc(C(N)=O)nc3cc(F)ccc23)c(C(F)(F)F)nn1Cc1ccc(C(C)(C)C)cc1 | 506 | 533 | 589
31 | CCN([C@H]1CC[C@@H](CC1)N(C)CCOC)C2=C(C)C(=CC(=C2)C#CCN3CCOCC3)C(=O)NC\C4=C(C)\C=C(\C)NC4=O | 536 | 552 | 500
32 | COc1nc(C)cnc1N[S+](=O)([O-])c1cccnc1-c1ccc(-c2nnco2)cc1 | 520 | 509 | 600
33 | CC[C@]12CC[C@H]3[C@@H](CCC/4=C/C(=O)CC[C@H]34)[C@@H]1CC[C@@]2(O)C#C | 519 | 575 | 614
34 | O=C(O)c1cccnc1 | 579 | 548 | 604
35 | Cc1n[nH]c(C)c1Cc1sc2c(c1C(=O)N1C[C@H](O)CO1)c(=O)n(C)c(=O)n2CC(C)C | 379 | 554 | 597
36 | CCN(CC)CCOc1ccc(Cc2ccccc2)cc1 | 454 | 503 | 526
37 | O=C(Cc1ccc(-c2ccc(OCCN3CCOCC3)cc2)cn1)NCc1ccccc1 | 397 | 493 | 531
38 | COC(=O)Nc1nc2cc(C(=O)c3ccc(F)cc3)ccc2[nH]1 | 570 | 462 | 574
39 | CN(Cc1cnc2nc(N)nc(N)c2n1)c1ccc(C(=O)N[C@@H](CCC(=O)O)C(=O)O)cc1 | 508 | 539 | 615
40 | N#Cc1ccc(C(c2ccc(C#N)cc2)n2cncn2)cc1 | 488 | 516 | 428
41 | COc1ccc(CNC(=O)c2cc(-c3cncc(Cl)c3)cnc2-c2ccccn2)nc1OC | 430 | 407 | 412
42 | CCOC(=O)N1CCN(/[N+]([O-])=N/Oc2ccc([N+](=O)[O-])cc2[N+](=O)[O-])CC1 | 544 | 521 | 644
43 | NC/1=N/C(=O)N(/C=N1)[C@@H]2O[C@H](CO)[C@@H](O)[C@H]2O | 469 | 504 | 522
44 | O=C(O)CCNC(=O)c1ccc(/N=N/c2ccc(O)c(C(=O)O)c2)cc1 | 519 | 589 | 635
45 | Cc1cc(C)c(/C=C2\C(=O)Nc3ccccc32)[nH]1 | 513 | 532 | 559
46 | Nc1nc(Cl)nc2c1ncn2[C@@H]1O[C@H](CO)[C@@H](O)[C@@H]1F | 468 | 537 | 559
47 | COCCCN1CCC(NC(=O)c2cc(Cl)c(N)c3c2OCC3)CC1 | 562 | 565 | 549
